Where two headings read alike, the source gives them in different places.
Key:
[1] = system: MEFs; test: RIPK1 kinase-dependent apoptosis (hTNF + TAK1i) in MEFs, Sytox Green; format: cell-based; details: Mus musculus, TAK1i + hTNF (100 pg/mL)
Source text: In MEFs, TNF together with the pan caspases inhibitor zVAD.fmk induces RIPK1-dependent necroptosis while TNF together with TAK1 inhibitor induces RIPK1 kinase-dependent apoptosis. We also included the conditions selected for the Western blot experiments, where necroptosis was induced by the combination of hTNF, zVAD.fmk and TAK1 inhibitor.

[2] = molecular target: T1, RIPK1 (Mus musculus, UniProt Q60855); test: RIPK1 autophosphorylation (pS166) by Western blot in MEFs stimulated with hTNF + TAK1i + zVAD.fmk; format: cell-based; details: immortalised MEFs, 30 min pretreatment with zVAD.fmk 50 μM, TAK1i 1 μM and compound, hTNF 20 ng/ml for 2.5 h, read-out: RIPK1 inhibition (IC50 estimated from a Western blot)
T1 construct: endogenous in cells; host or cells: immortalized mouse embryonic fibroblasts (MEFs, C57Bl6/J)
T1 sequence (Q60855 1-656): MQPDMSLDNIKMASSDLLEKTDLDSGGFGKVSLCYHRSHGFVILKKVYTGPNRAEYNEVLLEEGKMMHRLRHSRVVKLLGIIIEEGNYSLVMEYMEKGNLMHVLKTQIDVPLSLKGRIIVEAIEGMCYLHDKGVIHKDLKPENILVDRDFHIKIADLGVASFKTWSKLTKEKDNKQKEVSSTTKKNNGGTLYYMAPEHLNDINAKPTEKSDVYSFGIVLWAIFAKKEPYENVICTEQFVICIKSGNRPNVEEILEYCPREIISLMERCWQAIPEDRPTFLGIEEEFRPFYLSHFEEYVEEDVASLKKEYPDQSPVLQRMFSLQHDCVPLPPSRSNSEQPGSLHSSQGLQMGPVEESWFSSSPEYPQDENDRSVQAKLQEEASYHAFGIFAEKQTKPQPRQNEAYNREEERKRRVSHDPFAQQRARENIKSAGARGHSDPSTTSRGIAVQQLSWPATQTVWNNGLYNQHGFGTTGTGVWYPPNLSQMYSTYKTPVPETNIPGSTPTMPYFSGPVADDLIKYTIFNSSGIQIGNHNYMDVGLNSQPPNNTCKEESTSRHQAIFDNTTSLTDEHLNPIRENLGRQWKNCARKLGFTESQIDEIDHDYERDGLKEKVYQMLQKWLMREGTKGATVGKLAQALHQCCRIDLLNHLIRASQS
Procedure: MEFs were seeded in 6-well plates at a density of 300.000 cells/well in 2 mL. The next day, the cells were suspended in 1 mL of medium and pre-treated for 30 min with the indicated compounds at 1/5 dilutions series for PERK ranging from 5 to 0.04 µM and 1 μg/mL of Tm followed by 4 h treatment with 20 ng/mL of hTNF. For RIPK1, the cells were pre-treated at 1/10 dilutions series ranging from 10 to 0.01 nM, 50 µM zVAD.fmk and 1 µM TAKi before stimulation with 20 ng/mL of hTNF for 2.5 h. Then, the cells were washed two times with 1 mL of ice-cold PBS before lysis in 0.2 mL of Laemmli buffer 1x (10% (w/v) SDS, 50% glycerol, 0.5% bromophenol blue, 250 mM Tris–HCl pH 6.8) and 250 mM of dithiothreitol (DTT). The cell lysate was then collected and boiled at 95 °C for 10min and stored at −20°C. Proteins expression was later monitored by immunoblotting.
Activation of PERK was induced by stimulation of the cells with Tunicamycin, as previsouly reported ([Bull and Thiede, 2012]). More precisely, the immortalised MEFs were pre-incubated for 30 min with the analogues 18–34 at different concentrations (0.04, 0.2, 1, and 5 µM) prior to 4 h stimulation with Tunicamycin (1 μg/mL). […] Their activities were evaluated by comparing the intensity of the signal to unstimulated MEFs (considered as zero phosphorylation) and Tunicamycin stimulated cells (considered as 100% PERK phosphorylation). The 12 compounds (18–20, 22–29 and 34) that had lost their inhibitory capacity on PERK were then tested for their ability to inhibit RIPK1 as shown in Figures 6A–H. Activation and autophosphorylation of RIPK1 was induced by stimulating the cells with TNF in the presence of TAK1 inhibitor and of the pan-caspases inhibitor zVAD.fmk, a well established necroptotic trigger ([Vanlangenakker et al., 2011]). The MEFs were pre-incubated for 30 min with the different compounds (0.01 nM–1000 nM) and then stimulated with human TNF (20 ng/mL) for 2.5 h. Similar to the PERK assessment, IC50 values for RIPK1 inhibition were estimated as a range of concentrations, and are reported in Table 1. These experiments provide an estimation of the specificity of our analogues against PERK and RIPK1 in comparison to the benchmark GSK’157 already reported as a potent PERK and RIPK1 inhibitor.

[3] = system: HT-29; test: Necroptosis (hTNF + TAK1i + zVAD.fmk) in HT-29 cells, Sytox Green; details: Homo sapiens, HT-29, read-out: Necroptosis hTNF + TAK1i + zVAD.fmk HT-29 IC50
Procedure: In brief, the cells were seeded in duplicate at 10,000 cells per well in a 96-well adherent plate and incubated overnight at 37°C with 5% CO2. […] All the compound stock solutions were prepared in DMSO at 200 µM concentration. After stimulating the cells with human TNF at 20 ng/mL the plate was transferred to the incubator. Sytox Green intensity was measured in function of time at 0, 14 and 24 h with an excitation filter of 485 nm, an emission filter of 520 nm. The cell death was calculated by subtracting the background fluorescence from the induced Sytox Green fluorescence and by dividing the obtained result by the maximal fluorescence (minus the background fluorescence) obtained by permeabilization of the cells by using Triton X-100 at a final concentration of 0.1%. Curves were plotted in GraphPad 9 for the IC50 calculation.
To induce necroptosis in human colorectal adenocarcinoma cell line (HT-29) together with hTNF and the pan caspases inhibitor zVAD.fmk, TAK1 inhibitor is also needed.

[4] = system: immortalized MEFs; test: RIPK1 kinase-dependent necroptosis (hTNF + zVAD.fmk) in MEFs, Sytox Green; format: cell-based, mouse; details: Mus musculus, 24 h;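 further: cell death taken as background-corrected Sytox Green fluorescence relative to the maximal signal of cells fully permeabilized with 0.1% Triton X-100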
Procedure: In brief, the cells were seeded in duplicate at 10,000 cells per well in a 96-well adherent plate and incubated overnight at 37°C with 5% CO2. […] All the compound stock solutions were prepared in DMSO at 200 µM concentration. After stimulating the cells with human TNF at 20 ng/mL the plate was transferred to the incubator. […] The cell death was calculated by subtracting the background fluorescence from the induced Sytox Green fluorescence and by dividing the obtained result by the maximal fluorescence (minus the background fluorescence) obtained by permeabilization of the cells by using Triton X-100 at a final concentration of 0.1%. Curves were plotted in GraphPad 9 for the IC50 calculation.
Consequently, the compounds were evaluated for their potential protection of RIPK1-mediated necroptosis following human TNF stimulation.

Cn1cc(-c2ccc3c(c2F)CCN3C(=O)Cc2ccc(C(F)(F)F)cn2)c2c(N)ncnc21 [Compound 22]
IC50 [1]: 3.3 nM
IC50 [2]: 1 to 10 nM
IC50 [3]: 6.5 nM
IC50 ([4]; immortalized MEFs, zVAD-fmk 50 μM + hTNF 20 ng/ml, Sytox Green at 24 h, Table 1 series, read-out: IC50 necroptosis): 2.9 nM
IC50 ([4]; MEFs, hTNF + zVAD.fmk (20 ng/mL), Table 2, read-out: Necroptosis hTNF + zVAD.fmk MEFs IC50): 1.06 nM

From article PMC10119423, “From PERK to RIPK1: Design, synthesis and evaluation of novel potent and selective necroptosis inhibitors” (Frontiers in Chemistry, 2023)
